{"source": "patent US20080021002A1", "about": "“VITAMIN D COMPOUNDS USED TO STABILIZE KIDNEY TRANSPLANTS” (priority 2000, published 2008)", "assay_type_in_all_cases": "in vivo, rat", "key": {"Smad 3 protein": {"tested_on": "Smad 3 protein", "assay": "Western blot of renal graft lysates, Smad 3 protein", "conditions": "allogeneic recipients regardless of treatment, vs syngeneic controls (data not shown)", "from_the_text": "(§1) Renal lysates were subjected to SDS-PAGE and transferred to nitrocellulose membranes. The membranes were probed with specific anti-Smad antibodies and appropriated HRP-conjugated secondary antibodies. Signal was detected with chemilumensnce. Following exposure, x-ray films were scanned and the amount of expression compared to that of tubulin as an internal control using Scion Image software. FIG. 4 (A) describes R-Smad expression. FIG. 4 (B) described I-Smad expression.\n(§2) Western Blot Analysis: A portion of the snap frozen graft containing both cortex and medulla was ground with a mortar and pestle. For each 100 mg of tissue, the sample was resuspened in 400 ul of lysis buffer (10 mM Tris base, 150 mM NaCl, pH 8.0) containing protease inhibitors (P2714 1:1000. Sigma Chemical Co., St. Louis, Mo.) and homogenized (PowerGen 125, 1 minute). Triton X100 was then added to 1% and the sample place on ice, for 30 minutes. The solubilized sample was then spun at 4° C. for 15 minutes at 15,000×G. The supernatant was collected and stored at −80° C. Sample protein concentrations were determined using the Micro BCA assay (Pierce Chemical Co., Rockford, Ill.) according to manufacturer=s instructions, except that the assay was performed in half area plates combining 35 μl sample with 70 µl of reagent. […]"}, "MMP 2 protein": {"tested_on": "MMP 2 protein", "assay": "Antigen-capture ELISA of renal graft lysates, total MMP 2 protein", "conditions": "vs untreated allogeneic group (FIG. 5B); 1,25-(OH)2D3: syngeneic and allogeneic groups; CSA: allogeneic", "description": "(§3) FIG. 5 is a set of graphs showing that 1,25-(OH)2D3 Treatment Alters MMP and TIMP Expression . […] S26 was used as the housekeeping gene. […] Fold changes are expressed relative to the allogeneic untreated control.\n(§4) Enzyme Linked Immunoabsorbant Assay (ELISA): TGFβ-1 and MMP 2 levels were quantified by antigen-capture ELISA. […] After blocking with 1× block buffer at 37° C. for 35 minutes 25 ul of cell lysate (diluted 1:10 in the lysis buffer) was added to the wells. A standard curve was generated by performing two fold serial dilutions of the standard active TGFβ-1 antigen (diluted 15.6 pg/ml to 1000 pg/ml, Promega, Inc.) or MMP2 (0.5 ng/ml to 100 ng/ml, R and D Systems). The plate was incubated for 2 hours at RT with shaking and then washed extensively with wash buffer (0.05% Tween 20 in PBS) followed by PBS. The TGFβ-1 ELISA was then developed according to the manufacturer's instruction. For the MMP2 ELISA, biotinylated detection antibody, clone 101721 (25 μL/well at 1.4 ug/ml R and D Systems) was added and incubated at RT (1hour, with shaking). The antibody was biotinylated using a Mini-Biotin-XX Protein Labeling Kit (F-6347) according to manufacturer's instruction (Molecular Probes, Eugene Oreg.). […] Absorbance was measured at 450 nm on a Vmax Kinetic microplate reader (Molecular Devices, Sunnyvale Calif.). […]"}, "Smad 6 protein": {"tested_on": "Smad 6 protein", "assay": "Western blot of renal graft lysates, Smad 6 protein", "conditions": "allograft recipients vs allogeneic untreated control group", "from_the_text": "as §1, §2"}, "bioactive TGFβ-1": {"tested_on": "bioactive TGFβ-1", "assay": "Antigen-capture ELISA of renal graft lysates, bioactive TGFβ-1", "conditions": "treated recipients vs untreated allogeneic control grafts", "description": "as §4, with “Oreg.). Following further washing, avidin-peroxidase conjugate was added (25 ul/well at 1:5000) for 30 minutes at RT. A color reaction was developed by the addition of 25 ul of the TMB (3, 3′, 5, 5′-tetramethylbenzidine)/[…] substrate solution, (KPL, Gaithersberg, Md.).” for “Oreg.).”"}, "MMP 9 mRNA": {"tested_on": "MMP 9 mRNA", "assay": "Semi-quantitative RT-PCR of renal grafts, MMP 9 mRNA", "conditions": "all groups vs syngeneic untreated controls, regardless of treatment", "description": "FIG. 5 is a set of graphs showing that 1,25-(OH)2D3 Treatment Alters MMP and TIMP Expression . […] S26 was used as the housekeeping gene. […]\n(§5) Semi-quantitative Reverse transcription polymerace chain reaction (RT-PCR): Following graft harvest a […] containing both cortex and medulla was snap frozen in liquid nitrogen. Semi-quantitative RT-PCR was performed as described. Little et al. Transplant Int. 12:393-401, 1999. Briefly, samples were homogenized then total RNA extracted with RNAzol B (Tel Test, Inc., Friendswood, Tex.) and reversed transcribed to cDNA according to manufacturer=s instructions (Superscript, Gibco BRL). PCR was performed over the linear range of amplification for both the gene of interest, e.g. TGFβ-1, and the ribosomal protein S26 as a control housekeeping gene. PCR conditions were chosen such that both products were amplified with similar efficiency. The following cycle parameters were employed: denaturing, 94° C. for 60 seconds; annealing, 61° C. for 60 seconds; and extension, 72° C. for 60 seconds. The amount of product was quantified using a phosphoimager (Storm 80) following gel electrophoresis and Vista green detection."}, "MMP 2 mRNA": {"tested_on": "MMP 2 mRNA", "assay": "Semi-quantitative RT-PCR of renal grafts, MMP 2 mRNA", "description": "as §3, §5"}, "Smad 3 mRNA": {"tested_on": "Smad 3 mRNA", "assay": "Semi-quantitative RT-PCR of renal grafts, Smad 3 mRNA", "conditions": "vs controls", "description": "as §5"}}, "data": [{"smiles": "C=C1/C(=C\\C=C2/CCC[C@]3(C)[C@@H]([C@H](C)CCCC(C)(C)O)CC[C@@H]23)C[C@@H](O)C[C@@H]1O", "note": "[calcitriol, 1,25-dihydroxyvitamin D3]", "values": [{"measurement": "Smad 3 protein levels", "setting": "Smad 3 protein", "value": "similar"}, {"measurement": "Total MMP 2 protein expression", "setting": "MMP 2 protein", "value": "increased"}, {"measurement": "Smad 6 protein expression", "setting": "Smad 6 protein", "value": "decreased"}, {"measurement": "Bioactive TGFβ-1 protein levels", "setting": "bioactive TGFβ-1", "value": "no significant difference"}, {"measurement": "MMP 9 mRNA", "setting": "MMP 9 mRNA", "value": "increased"}, {"measurement": "Increase in MMP 2 mRNA levels", "setting": "MMP 2 mRNA; allogeneic grafts (FIG. 5A)", "value": 5.6, "unit": "fold"}, {"measurement": "Increase in MMP 2 mRNA levels", "setting": "MMP 2 mRNA; syngeneic grafts (FIG. 5A)", "value": 4.0, "unit": "fold"}, {"measurement": "Smad 3 mRNA levels", "setting": "Smad 3 mRNA", "value": "no significant change"}]}]}
